Legend:
[1] = test system: MCF10A (human mammary epithelial cell line); test: MTT cell viability assay, MCF10A; assay type: cell-based; set-up: key to SI (Non-Tumor/MDA-MB231) MCF10A: NS: nonselective; HS: highly selective
Description: (§1) For in vitro assays, three tumor cell lines were used: MCF7 (ER-positive BC), maintained in Roswell Park Memorial Institute medium (RPMI-1640, Gibco®, Grand Island, NY, USA); MDA-MB-453 (HER2-positive BC), grown in Iscove’s Modified Dulbecco’s Medium (IMDM, Gibco®); and MDA-MB-231 (TNBC), grown in Leibovitz’s L-15 Medium (L15, Gibco®). Additionally, three non-tumor cell lines were used: HUVEC (human umbilical vein endothelial cells), cultured in (RPMI-1640); HFF (human fibroblast), cultured in Dulbecco’s Modified Eagle Medium: Nutrient Mixture—High Glucose (DMEM/F12-High Glucose, Gibco®); and MCF10A (human mammary epithelial cell line), also cultured in DMEM/F12 supplemented with 10 μg/mL of insulin (Gibco®), 0.25 μg/mL of hydrocortisone (Sigma-Aldrich®, Saint Louis, MO, USA), and […] of Epidermal Growth Factor (EGF) (Gibco®). All culture media were supplemented with 10% fetal bovine serum (FBS) (Gibco®) and 50 μg/mL of gentamicin (Cultilab®, Campinas, SP, Brazil). The culture flasks were kept in an incubator at 37 °C under an atmosphere of 5% CO2, except for the MDA-MB 231 lineage, which was grown without CO2 gas exchange. All cells were purchased from the American Type Culture Collection (ATCC, Manassas, VA, USA).
(§2) To analyze cell viability, the test based on the reduction of tetrazolium 3-(4,5-dimethylthiazol-2yl)-2,5-diphenyl bromide (MTT) was used. […] Then, 200 μL of DMSO was added to each well and the reading was carried out at 560 nm using the Multiskan FC Microplate Photometer reader (Thermo Fisher Scientific®, Waltham, MA, USA).
(§3) The data obtained were analyzed using GraphPad Prism 8.0 software. Three independent triplicate assays were conducted and means and standard deviations were calculated. Normality was assessed using the Shapiro–Wilk test and Student’s t-test and one-way ANOVA, followed by Tukey’s post-test, were applied to compare treatments. […] The IC50 values were calculated by non-linear regression and the selectivity index (SI) for MDA-MB-231 cells was established by the ratio between the IC50 of each non-tumor cell line and the IC50 of MDA-MB-231. […]

[2] = test system: HUVEC (human umbilical vein endothelial cells); test: MTT cell viability assay, HUVEC; assay type: cell-based
Experimental: (§4) For in vitro assays, three tumor cell lines were used: MCF7 (ER-positive BC), maintained in Roswell Park Memorial Institute medium (RPMI-1640, Gibco®, Grand Island, NY, USA); MDA-MB-453 (HER2-positive BC), grown in Iscove’s Modified Dulbecco’s Medium (IMDM, Gibco®); and MDA-MB-231 (TNBC), grown in Leibovitz’s L-15 Medium (L15, Gibco®). […]
as §2, §3

[3] = test system: MDA-MB-231 (TNBC) cells; test: MTT cell viability assay, MDA-MB-231; assay type: cell-based, human
Description: as §1
(§5) To analyze cell viability, the test based on the reduction of tetrazolium 3-(4,5-dimethylthiazol-2yl)-2,5-diphenyl bromide (MTT) was used. HUVEC cell lines (1.0 × 10^4 cells/well); HFF (8.0 × 10^3 cells/well); MCF10A (1.2 × 10^4 cells/well); MDA-MB-453 and MCF7 (5.0 × 10^3 cells/well) and MDA-MB-231 (1.5 × 10^4 cells/well) were seeded in 96-well plates in complete culture medium. […] All assays were performed in triplicate. Wells containing only cells and medium (untreated cells) and wells containing cells treated with DMSO diluent were used as experimental controls (considered as 100% cell viability). After incubation, MTT (5 mg/mL-diluted in phosphate-buffered saline—PBS) was added along with complete culture medium at 10% v/v and maintained for 4 h. Then, 200 μL of DMSO was added to each well and the reading was carried out at 560 nm using the Multiskan FC Microplate Photometer reader (Thermo Fisher Scientific®, Waltham, MA, USA).
(§6) The data obtained were analyzed using GraphPad Prism 8.0 software. Three independent triplicate assays were conducted and means and standard deviations were calculated. Normality was assessed using the Shapiro–Wilk test and Student’s t-test and one-way ANOVA, followed by Tukey’s post-test, were applied to compare treatments. Differences were considered significant when p < 0.05. The IC50 values were calculated by non-linear regression and the selectivity index (SI) for MDA-MB-231 cells was established by the ratio between the IC50 of each non-tumor cell line and the IC50 of MDA-MB-231. SI values ≥ 2 were considered significant.

[4] = test system: HFF (human fibroblast); test: MTT cell viability assay, HFF; assay type: cell-based
Experimental: as §4, §2, §3

[5] = test system: MDA-MB-453 (HER2-positive BC) cells; test: MTT cell viability assay, MDA-MB-453; assay type: cell-based, human
Experimental: All culture media were supplemented with 10% fetal bovine serum (FBS) (Gibco®) and 50 μg/mL of gentamicin (Cultilab®, Campinas, SP, Brazil). […] All cells were purchased from the American Type Culture Collection (ATCC, Manassas, VA, USA).
as §5, with “used.” for “used. HUVEC cell lines (1.0 × 10^4 cells/well); HFF (8.0 × 10^3 cells/well); MCF10A (1.2 × 10^4 cells/well); MDA-MB-453 and MCF7 (5.0 × 10^3 cells/well) and MDA-MB-231 (1.5 × 10^4 cells/well) were seeded in 96-well plates in complete culture medium.”
as §6, with “The IC50 values were calculated by non-linear regression and the selectivity index (SI) for MDA-MB-231 cells was established by the ratio between the IC50 of each non-tumor cell line and the IC50 of MDA-MB-231.” left out

[6] = test system: MCF7 (ER-positive BC) cells; test: MTT cell viability assay, MCF7; assay type: cell-based, human
Description: as §1, §5, §6

[7] = Solubility in solvents; assay type: physicochemical

Row | Structure (SMILES) | IC50 ([3]; 48 h) [µM] | IC50 ([5]; 48 h) [µM] | IC50 ([6]; 48 h) [µM] | IC50 ([3]; Homo sapiens, MDA-MB-231, 48 h) [µM] | IC50 ([5]; Homo sapiens, MDA-MB-453, 48 h) [µM] | IC50 ([6]; Homo sapiens, MCF7, 48 h) [µM] | cytotoxicity in words, MDA-MB-231 ([3]; 48 h) | cytotoxicity in words, MDA-MB-453 ([5]; 48 h) | concentration from which cell viability decreased, MCF7 ([6]; 48 h) [µM] | cytotoxicity in words, MCF7 ([6]; 48 h) | solubility in MeOH [7] | also measured
1 | CCNC(=NN=C(C)c1ccccn1)[S][Zn][O]C(=NN=C(C)c1ccccn1)c1ccco1 [Complex 1, [Zn(Hz)(atc–Et)]] | 0.24 | 0.32 | 9.43 | – | – | – | cytotoxic | cytotoxic | ≥ 0.25 | proliferated after treatment with the lowest concentrations | – | sensitivity in words, MCF10A ([1]; 48 h, MTT, compared with HUVEC and HFF): most sensitive; IC50 ([1]; 48 h, MTT, non-tumor cell line): < 0.01 µM; SI (Non-Tumor/MDA-MB231) MCF10A ([1]; IC50 in MCF10A divided by IC50 of MDA-MB-231): NS; IC50 ([2]; 48 h, MTT, non-tumor cell line): 2.52 µM; SI (Non-Tumor/MDA-MB231) HUVEC ([2]; IC50 in HUVEC divided by IC50 of MDA-MB-231): 10.50; IC50 ([4]; 48 h, MTT, non-tumor cell line): 4.57 µM; SI (Non-Tumor/MDA-MB231) HFF ([4]; IC50 in HFF divided by IC50 of MDA-MB-231): 19.04
2 | CC(=NNC(N)=O)c1ccccn1.CCNC(=NN=C(C)c1ccccn1)[S][Zn+].[Cl-] [Complex 3, [Zn(atc–Et)(Hsc)]Cl] | – | – | – | – | – | – | – | – | – | – | pretty soluble | –
3 | CC(=NN=C([O][Zn+])c1ccco1)c1ccccn1.CC(=NNC(N)=O)c1ccccn1.[Cl-] [Complex 4, [Zn(Hz)(Hsc)]Cl] | – | – | – | – | – | – | – | – | – | – | pretty soluble | –

More lines, main results first:

Row | IC50 ([3]; 48 h) [µM] | IC50 ([5]; 48 h) [µM] | IC50 ([6]; 48 h) [µM] | IC50 ([3]; Homo sapiens, MDA-MB-231, 48 h) [µM] | IC50 ([5]; Homo sapiens, MDA-MB-453, 48 h) [µM] | IC50 ([6]; Homo sapiens, MCF7, 48 h) [µM] | Structure (SMILES) | cytotoxicity in words, MDA-MB-231 ([3]; 48 h) | cytotoxicity in words, MDA-MB-453 ([5]; 48 h) | concentration from which cell viability decreased, MCF7 ([6]; 48 h) [µM] | cytotoxicity in words, MCF7 ([6]; 48 h) | solubility in MeOH [7] | also measured
4 | – | – | – | 0.27 | < 0.01 | > 156 | CCNC(=S)N/N=C(\C)c1ccccn1 [Hatc-Et, 2-Acetylpyridine-4-ethyl-3-thiosemicarbazone] | most sensitive | most sensitive | – | most resistant | – | –
5 | – | – | – | 30.3 | 4.11 | > 156 | CC(=NNC(=O)c1ccco1)c1ccccn1 [Hhz, 2-Acetylpyridine-furanoylhidrazone] | – | – | ≥ 6.25 | – | – | concentration from which cytotoxicity was observed, MDA-MB-231 ([3]; 48 h): ≥ 1250 nM; concentration from which cell viability decreased, MDA-MB-453 ([5]; 48 h): ≥ 6.25 µM
6 | > 156 | < 0.01 | > 156 | – | – | – | [Cl-].[Cl-].[Zn+2] [ZnCl2, zinc chloride] | – | – | – | – | – | –

From publication PMC11676115, “A New Heteroleptic Zn(II) Complex with Schiff Bases Sensitizes Triple-Negative Breast Cancer Cells to Doxorubicin and Paclitaxel” (Pharmaceutics, 2024)
